Test results from ChEMBL document CHEMBL1154018, “Esters of betulin and betulinic acid with amino acids have improved water solubility and are selectively cytotoxic toward cancer cells” (Bioorg Med Chem Lett, 2009).

Key:
[1] = Cytotoxicity against human EPP85-181P cells after 24 hrs by SRB method; assay type: functional, cell-based
[2] = Cytotoxicity against daunorubicin-resistant human EPP85-181RDB cells after 24 hrs by SRB method; assay type: functional, cell-based
[3] = Cytotoxicity against human EPG85-257P cells after 24 hrs by SRB method; assay type: functional, cell-based
[4] = Cytotoxicity against daunorubicin-resistant human EPG85-257RDB cells after 24 hrs by SRB method; assay type: functional, cell-based
[5] = Aqueous solubility in DMSO solution at 1 mg; assay type: physicochemical
[6] = Induction of apoptosis in human EPP85-181P cells assessed as cell accumulation at apoptotic phase after 24 hrs by comet assay; assay type: functional
[7] = Induction of apoptosis in human EPP85-181P cells assessed as normal cells after 24 hrs by comet assay; assay type: functional
[8] = Induction of apoptosis in human EPG85-257P cells assessed as cell accumulation at apoptotic phase after 24 hrs by comet assay; assay type: functional
[9] = Induction of apoptosis in human EPG85-257P cells assessed as normal cells after 24 hrs by comet assay; assay type: functional
[10] = Chemical stability in 0.02M phosphatre buffer of pH 7.4 after 6 days by RP-HPLC; assay type: physicochemical; details: pH 7.4, 144 h

| Structure (SMILES) | IC50 [1] [µM] | IC50 [2] [µM] | IC50 [3] [µM] | IC50 [4] [µM] | solubility [5] | Activity [6] [%] | Activity [7] [%] | Activity [8] [%] | Activity [9] [%] | Stability [10] |
| --- | --- | --- | --- | --- | --- | --- | --- | --- | --- | --- |
| C=C(C)[C@@H]1CC[C@]2(COC(=O)[C@H](C)N)CC[C@]3(C)[C@H](CC[C@@H]4[C@@]5(C)CC[C@H](OC(=O)[C@H](C)N)C(C)(C)[C@@H]5CC[C@]43C)[C@@H]12 | 4.6 | 21 | 17 | > 50 | Soluble | 100 | 0 | 100 | 0 | – |
| C=C(C)[C@@H]1CC[C@]2(C(=O)O)CC[C@]3(C)[C@H](CC[C@@H]4[C@@]5(C)CC[C@H](OC(=O)[C@@H](N)CCCN)C(C)(C)[C@@H]5CC[C@]43C)[C@@H]12 | 14 | > 50 | 9.7 | > 50 | Soluble | 99 | 1 | – | – | – |
| C=C(C)[C@@H]1CC[C@]2(C(=O)O)CC[C@]3(C)[C@H](CC[C@@H]4[C@@]5(C)CC[C@H](OC(=O)[C@@H](N)CC)C(C)(C)[C@@H]5CC[C@]43C)[C@@H]12 | 26 | > 50 | 33 | > 50 | Soluble | 69.6 | 30.4 | 1.7 | 98.3 | – |
| C=C(C)[C@@H]1CC[C@]2(COC(=O)[C@@H](N)CCSC)CC[C@]3(C)[C@H](CC[C@@H]4[C@@]5(C)CC[C@H](OC(=O)[C@@H](N)CCSC)C(C)(C)[C@@H]5CC[C@]43C)[C@@H]12 | 22 | > 50 | 31 | > 50 | Soluble | 24.7 | 75.3 | 15.1 | 84.9 | – |
| C=C(C)[C@@H]1CC[C@]2(COC(=O)[C@@H](N)Cc3ccccc3)CC[C@]3(C)[C@H](CC[C@@H]4[C@@]5(C)CC[C@H](OC(=O)[C@@H](N)Cc6ccccc6)C(C)(C)[C@@H]5CC[C@]43C)[C@@H]12 | > 50 | > 50 | > 50 | > 50 | Soluble | 1 | 99 | 9 | 91 | – |
| C=C(C)[C@@H]1CC[C@]2(C(=O)O)CC[C@]3(C)[C@H](CC[C@@H]4[C@@]5(C)CC[C@H](OC(=O)[C@@H](N)Cc6ccccc6)C(C)(C)[C@@H]5CC[C@]43C)[C@@H]12 | > 50 | > 50 | > 50 | > 50 | Soluble | 3.1 | 96.9 | 2.5 | 97.5 | – |
| C=C(C)[C@@H]1CC[C@]2(C(=O)O)CC[C@]3(C)[C@H](CC[C@@H]4[C@@]5(C)CC[C@H](O)C(C)(C)[C@@H]5CC[C@]43C)[C@@H]12 [BETULINIC ACID] | 32 | > 50 | 42 | > 50 | Soluble | 16 | 84 | 4 | 96 | – |
| C=C(C)[C@@H]1CC[C@]2(C(=O)O)CC[C@]3(C)[C@H](CC[C@@H]4[C@@]5(C)CC[C@H](OC(=O)[C@H](C)N)C(C)(C)[C@@H]5CC[C@]43C)[C@@H]12 | > 50 | > 50 | 48 | > 50 | Soluble | 25.9 | 74.1 | 1.4 | 98.6 | – |
| C=C(C)[C@@H]1CC[C@]2(CO)CC[C@]3(C)[C@H](CC[C@@H]4[C@@]5(C)CC[C@H](O)C(C)(C)[C@@H]5CC[C@]43C)[C@@H]12 [BETULIN] | > 50 | 46 | 26 | > 50 | Insoluble | 2 | 98 | 0.5 | 99.5 | – |
| C=C(C)[C@@H]1CC[C@]2(COC(=O)[C@H](C)N)CC[C@]3(C)[C@H](CC[C@@H]4[C@@]5(C)CC[C@H](O)C(C)(C)[C@@H]5CC[C@]43C)[C@@H]12 | > 50 | > 50 | 38 | > 50 | Soluble | 5.2 | 94 | 42 | 58 | – |
| C=C(C)[C@@H]1CC[C@]2(COC(=O)[C@@H](N)CCCCN)CC[C@]3(C)[C@H](CC[C@@H]4[C@@]5(C)CC[C@H](OC(=O)[C@@H](N)CCCCN)C(C)(C)[C@@H]5CC[C@]43C)[C@@H]12 | 3.8 | 18 | 4.1 | > 50 | Soluble | 99.5 | 0.5 | 100 | 0 | Stable |
| C=C(C)[C@@H]1CC[C@]2(COC(=O)CN)CC[C@]3(C)[C@H](CC[C@@H]4[C@@]5(C)CC[C@H](O)C(C)(C)[C@@H]5CC[C@]43C)[C@@H]12 | > 50 | > 50 | > 50 | > 50 | Soluble | 1.4 | 98.6 | 9.8 | 90.2 | – |
| C=C(C)[C@@H]1CC[C@]2(COC(=O)CN)CC[C@]3(C)[C@H](CC[C@@H]4[C@@]5(C)CC[C@H](OC(=O)CN)C(C)(C)[C@@H]5CC[C@]43C)[C@@H]12 | > 50 | > 50 | > 50 | > 50 | Soluble | 0.5 | 99.5 | – | – | – |
